In PMC4457932, “Characterization of Spirometra erinaceieuropaei Plerocercoid Cysteine Protease and Potential Application for Serodiagnosis of Sparganosis” (PLoS Neglected Tropical Diseases, 2015):
Residues, ends and D or L forms follow the SMILES beside them. *: point of attachment. AMC = Cc1cc(=O)oc2cc(N*)ccc12; Cbz = O=C(OCc1ccccc1)*

Assays:
[1] = biological target: T1, rSeCP (Spirometra erinaceieuropaei, UniProt O02586); experiment: fluorogenic peptidase assay, Z-Phe-Arg-AMC; format: biochemical
T1 construct: MBP fusion (pMAL-c2X, E. coli TB1), 19-residue signal peptide omitted, proform 36 kDa plus MBP 43 kDa, 79 kDa, tag kept; full-length ORF 336 residues
Excerpt: fluorogenic peptidase assay, Z-Phe-Arg-AMC on rSeCP

[2] = biological target: T1, rSeCP; experiment: AMC fluorescence, […] nm; format: biochemical; details: 3 μM substrate, 100 mM sodium acetate, 5 mM DTT, pH 5.5, 37°C

T1 sequence (O02586 entry or part of it): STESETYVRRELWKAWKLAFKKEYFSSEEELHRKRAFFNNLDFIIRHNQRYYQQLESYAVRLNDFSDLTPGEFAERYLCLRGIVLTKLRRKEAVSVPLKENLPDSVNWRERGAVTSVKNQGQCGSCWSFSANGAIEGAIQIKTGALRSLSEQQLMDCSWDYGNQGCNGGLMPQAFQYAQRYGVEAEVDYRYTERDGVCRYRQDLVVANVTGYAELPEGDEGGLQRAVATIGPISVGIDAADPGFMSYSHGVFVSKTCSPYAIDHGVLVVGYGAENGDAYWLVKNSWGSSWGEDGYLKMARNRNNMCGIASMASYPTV

CC(C)C[C@H](NC(=O)[C@H]1O[C@@H]1C(=O)O)C(=O)NCCCCN=C(N)N [E-64, L-trans-epoxysuccinyl-leucylamide (4-guanidino) butane]
activity at 5 µM [1]: 0.8%

Cc1cc(=O)oc2cc(NC(=O)[C@H](CCCNC(=N)N)NC(=O)[C@H](Cc3ccccc3)NC(=O)OCc3ccccc3)ccc12 [Z-Phe-Arg-AMC, Z-carbobenzoxy-L-phenylalanyl-L-arginine-(7-amino-4-methylcoumarin)] (Cbz-Phe-Arg-{AMC})
AMC fluorescence, 355/460 nm [2]: determined by cleavage of the fluorescent substrate Z-carbobenzoxy-L-phenylalanyl-L-arginine-(7-amino-4-methylcoumarin) (Z-Phe-Arg-AMC, Sigma)
